What all share (assay): relative viability (nuclei count vs DMSO), 5 days (fraction); higher = more cells survive
Compound in test [1]: CC(C)CCN1c2nc(Nc3cc(F)c(O)c(F)c3)ncc2N(C)C(=O)C1C [BI-D1870] + NC(=O)Nc1cc(-c2cccc(F)c2)sc1C(=O)N[C@H]1CCCNC1 [AZD7762] (partner 0.2 µM)
The gist of the method:
(§1)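 Nuclei were stained with Hoechst during a one-step fixation (final 0.05% Triton X-100, 1% formaldehyde, 1 ug/ml Hoechst) carried out 5 days after dosing, then counted on 4× images. The cells, lung cancer lines in 1536-well plates, had been dosed by pin tool the day after seeding with one drug alone or a fixed anchor-drug dose plus five library-drug doses (not always all listed) in √10 steps. Relative viability is the nuclei count in treated wells divided by that in vehicle wells, and each value is the median of duplicate plates.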

Compound in test [2]: O=c1ncccn1[C@@H]1O[C@H](CO)[C@@H](O)[C@H]1O [Zebularine] + Cc1nc(NC(=O)N2CCC[C@H]2C(N)=O)sc1-c1ccnc(C(C)(C)C(F)(F)F)c1 [Alpelisib] (partner 2 µM)
The essentials:
as §1

Compound in test [3]: CC(C)CCN1c2nc(Nc3cc(F)c(O)c(F)c3)ncc2N(C)C(=O)C1C [BI-D1870] + COc1cccc2cc(-c3nc([C@H]4CC[C@H](C(=O)O)CC4)n4ncnc(N)c34)[nH]c12 [OSI-027] (partner 0.5 µM)
The gist of the method:
as §1

Compound in test [4]: CC(C)CCN1c2nc(Nc3cc(F)c(O)c(F)c3)ncc2N(C)C(=O)C1C [BI-D1870] + Cc1cc(Nc2cc(N3CCN(C)CC3)nc(Sc3ccc(NC(=O)C4CC4)cc3)n2)n[nH]1 [Tozasertib] (partner 0.1 µM)
The essentials: as §1

Regarding NCI-H2405, the relative viability was 0.875 in test [1] (first compound 0.04 µM); 0.707 in test [1] (first compound 0.1265 µM); 0.717 in test [1] (first compound 0.4 µM); 0.806 in test [1] (first compound 1.265 µM); 0.624 in test [1] (first compound 4 µM); 0.749 in test [2] (first compound 1 µM). Moreover, the relative viability in test [2] (first compound 3.162 µM) was 0.749; in test [2] (first compound 10 µM) it was 0.726; in test [2] (first compound 31.62 µM) it was 0.769; in test [2] (first compound 100 µM), 0.568; in test [3] (first compound 0.04 µM), 0.675; in test [3] (first compound 0.1265 µM) it was 0.634. The relative viability in test [3] (first compound 0.4 µM) amounted to 0.643; in test [3] (first compound 1.265 µM), 0.688; in test [3] (first compound 4 µM), 0.642; in test [4] (first compound 0.04 µM) it was 0.837; in test [4] (first compound 0.1265 µM), 0.697; in test [4] (first compound 0.4 µM), 0.728. In addition, the relative viability in test [4] (first compound 1.265 µM) came to 0.846; in test [4] (first compound 4 µM), 0.421.
Turning to NCI-H322M, the relative viability in test [1] (first compound 0.04 µM) came out at 0.591; in test [1] (first compound 0.1265 µM), 0.558; in test [1] (first compound 0.4 µM), 0.611; in test [1] (first compound 1.265 µM), 0.684; in test [1] (first compound 4 µM), 0.656; in test [2] (first compound 1 µM), 0.732. In addition, the relative viability in test [2] (first compound 3.162 µM) came to 0.756; in test [2] (first compound 10 µM) it was 0.772; in test [2] (first compound 31.62 µM), 0.673; in test [2] (first compound 100 µM), 0.676; in test [3] (first compound 0.04 µM) it was 0.579; in test [3] (first compound 0.1265 µM), 0.511. The relative viability in test [3] (first compound 0.4 µM) was 0.38; in test [3] (first compound 1.265 µM) it was 0.444; in test [3] (first compound 4 µM) it was 0.494; in test [4] (first compound 0.04 µM), 0.494; in test [4] (first compound 0.1265 µM) it was 0.508; in test [4] (first compound 0.4 µM) it was 0.456. Also, the relative viability was found to be 0.495 in test [4] (first compound 1.265 µM) and 0.41 in test [4] (first compound 4 µM).
In the case of NCI-H2170, the relative viability in test [1] (first compound 0.04 µM) worked out at 0.977; in test [1] (first compound 0.1265 µM) it was 0.882; in test [1] (first compound 0.4 µM) it was 0.844; in test [1] (first compound 1.265 µM), 0.923; in test [1] (first compound 4 µM), 0.654; in test [2] (first compound 1 µM) it was 0.85. The relative viability in test [2] (first compound 3.162 µM) is 0.84; in test [2] (first compound 10 µM), 0.543; in test [2] (first compound 31.62 µM) it was 0.684; in test [2] (first compound 100 µM), 0.507; in test [3] (first compound 0.04 µM), 0.732; in test [3] (first compound 0.1265 µM) it was 0.634. Also, the relative viability in test [3] (first compound 0.4 µM) came to 0.65; in test [3] (first compound 1.265 µM), 0.428; in test [3] (first compound 4 µM) it was 0.639; in test [4] (first compound 0.04 µM), 0.701; in test [4] (first compound 0.1265 µM) it was 0.715; in test [4] (first compound 0.4 µM), 0.713. Also, the relative viability in test [4] (first compound 1.265 µM) is 0.648; in test [4] (first compound 4 µM) it was 0.574.
For NCI-H1395, the relative viability in test [1] (first compound 0.04 µM) amounted to 0.398; in test [1] (first compound 0.1265 µM) it was 0.374; in test [1] (first compound 0.4 µM), 0.42; in test [1] (first compound 1.265 µM), 0.427; in test [1] (first compound 4 µM), 0.454; in test [2] (first compound 1 µM), 1.32. The relative viability in test [2] (first compound 3.162 µM) amounted to 0.941; in test [2] (first compound 10 µM), 0.82; in test [2] (first compound 31.62 µM), 0.785; in test [2] (first compound 100 µM), 0.598; in test [3] (first compound 0.04 µM), 0.717; in test [3] (first compound 0.1265 µM), 0.639. The relative viability in test [3] (first compound 0.4 µM) amounted to 0.658; in test [3] (first compound 1.265 µM), 0.616; in test [3] (first compound 4 µM), 0.593; in test [4] (first compound 0.04 µM), 0.818; in test [4] (first compound 0.1265 µM), 0.685; in test [4] (first compound 0.4 µM), 0.718. The relative viability in test [4] (first compound 1.265 µM) stood at 0.72; in test [4] (first compound 4 µM), 0.721.
On to NCI-H358, for which the relative viability in test [1] (first compound 0.04 µM) turned out to be 0.551; in test [1] (first compound 0.1265 µM), 0.566; in test [1] (first compound 0.4 µM), 0.52; in test [1] (first compound 1.265 µM) it was 0.594; in test [1] (first compound 4 µM), 0.492; in test [2] (first compound 1 µM) it was 0.888. The relative viability was 0.786 in test [2] (first compound 3.162 µM); 0.578 in test [2] (first compound 10 µM); 0.495 in test [2] (first compound 31.62 µM); 0.266 in test [2] (first compound 100 µM); 0.825 in test [3] (first compound 0.04 µM); 0.65 in test [3] (first compound 0.1265 µM). Also, the relative viability is 0.687 in test [3] (first compound 0.4 µM); 0.728 in test [3] (first compound 1.265 µM); 0.344 in test [3] (first compound 4 µM); 0.124 in test [4] (first compound 0.04 µM); 0.0956 in test [4] (first compound 0.1265 µM); 0.118 in test [4] (first compound 0.4 µM). Besides, the relative viability is 0.127 in test [4] (first compound 1.265 µM) and 0.113 in test [4] (first compound 4 µM).
NCI-H838: the relative viability was determined as 0.994 in test [1] (first compound 0.04 µM); 0.909 in test [1] (first compound 0.1265 µM); 0.893 in test [1] (first compound 0.4 µM); 1.04 in test [1] (first compound 1.265 µM); 0.947 in test [1] (first compound 4 µM); 1.04 in test [2] (first compound 1 µM). Moreover, the relative viability in test [2] (first compound 3.162 µM) was 1.05; in test [2] (first compound 10 µM), 0.707; in test [2] (first compound 31.62 µM), 0.857; in test [2] (first compound 100 µM), 0.404; in test [3] (first compound 0.04 µM), 0.378; in test [3] (first compound 0.1265 µM) it was 0.352. The relative viability in test [3] (first compound 0.4 µM) came out at 0.349; in test [3] (first compound 1.265 µM), 0.47; in test [3] (first compound 4 µM) it was 0.462; in test [4] (first compound 0.04 µM), 0.283; in test [4] (first compound 0.1265 µM) it was 0.265; in test [4] (first compound 0.4 µM) it was 0.243. Besides, the relative viability was 0.251 in test [4] (first compound 1.265 µM) and 0.22 in test [4] (first compound 4 µM).
Consider CAL-12T, for which the relative viability is 0.749 in test [1] (first compound 0.04 µM); 0.546 in test [1] (first compound 0.1265 µM); 0.637 in test [1] (first compound 0.4 µM); 0.599 in test [1] (first compound 1.265 µM); 0.668 in test [1] (first compound 4 µM); 1.49 in test [2] (first compound 1 µM). The relative viability in test [2] (first compound 3.162 µM) was found to be 1.07; in test [2] (first compound 31.62 µM), 1.28; in test [2] (first compound 100 µM), 1.1; in test [3] (first compound 0.04 µM) it was 0.593; in test [3] (first compound 0.1265 µM), 0.449; in test [3] (first compound 0.4 µM) it was 0.477. Further, the relative viability in test [3] (first compound 1.265 µM) amounted to 0.599; in test [3] (first compound 4 µM), 0.303; in test [4] (first compound 0.04 µM), 0.324; in test [4] (first compound 0.1265 µM), 0.317; in test [4] (first compound 0.4 µM) it was 0.185; in test [4] (first compound 1.265 µM) it was 0.261. The relative viability in test [4] (first compound 4 µM) came to 0.194.

The values are drawn from the supplement of paper PMC10307832.
